Where a name gives a salt, the structure may show the parent alone.
Experiments:
Type in all cases: biochemical
[1] = target: T1, DHFR in CCRF-CEM human leukemia cells (Homo sapiens, UniProt P00374); assay: DHFR enzyme inhibition assay; conditions: DHFR from CCRF-CEM cells, pre-incubation with NADPH 3 minutes at 37° C.
T1 construct: endogenous in cells; host or cells: CCRF-CEM
T1 sequence (P00374 1-187): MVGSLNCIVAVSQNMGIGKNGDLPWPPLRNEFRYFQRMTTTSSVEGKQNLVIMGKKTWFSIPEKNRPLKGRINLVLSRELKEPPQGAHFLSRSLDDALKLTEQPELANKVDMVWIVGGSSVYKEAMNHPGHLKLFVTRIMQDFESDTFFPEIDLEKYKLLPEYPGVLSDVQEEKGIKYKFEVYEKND

[2] = target: T2, TS in CCRF-CEM human T-lymphoblastic leukemia cells (Homo sapiens, UniProt P04818); assay: TS enzyme inhibition assay; conditions: TS from CCRF-CEM cells, up to five graded concentrations; read-out: IC50 against TS
T2 construct: endogenous in cells; host or cells: CCRF-CEM
Protocol: The inhibitory potency against TS in CCRF-CEM human T-lymphoblastic leukemia cells was assessed by introducing up to five graded concentrations of compounds into the reaction mixture, initiating the reaction by addition of TS, and quantitating remaining TS activity.

AICART = AICART (Homo sapiens, UniProt P31939); assay: AICART inhibition (similar tests); conditions: read-out: IC50 against AICART
From the text: (§1) The above data illustrates the selectivity of the novel antifolates in enzyme inhibition. […] As previously noted, such selectivity in activity can be useful for improving activity against specific conditions while avoiding undesirable side effects.

GARFT = target: T3, GARFT (Homo sapiens, UniProt P22102); assay: GARFT inhibition (similar tests); conditions: read-out: IC50 against GARFT
T3 sequence (P22102 1-1010): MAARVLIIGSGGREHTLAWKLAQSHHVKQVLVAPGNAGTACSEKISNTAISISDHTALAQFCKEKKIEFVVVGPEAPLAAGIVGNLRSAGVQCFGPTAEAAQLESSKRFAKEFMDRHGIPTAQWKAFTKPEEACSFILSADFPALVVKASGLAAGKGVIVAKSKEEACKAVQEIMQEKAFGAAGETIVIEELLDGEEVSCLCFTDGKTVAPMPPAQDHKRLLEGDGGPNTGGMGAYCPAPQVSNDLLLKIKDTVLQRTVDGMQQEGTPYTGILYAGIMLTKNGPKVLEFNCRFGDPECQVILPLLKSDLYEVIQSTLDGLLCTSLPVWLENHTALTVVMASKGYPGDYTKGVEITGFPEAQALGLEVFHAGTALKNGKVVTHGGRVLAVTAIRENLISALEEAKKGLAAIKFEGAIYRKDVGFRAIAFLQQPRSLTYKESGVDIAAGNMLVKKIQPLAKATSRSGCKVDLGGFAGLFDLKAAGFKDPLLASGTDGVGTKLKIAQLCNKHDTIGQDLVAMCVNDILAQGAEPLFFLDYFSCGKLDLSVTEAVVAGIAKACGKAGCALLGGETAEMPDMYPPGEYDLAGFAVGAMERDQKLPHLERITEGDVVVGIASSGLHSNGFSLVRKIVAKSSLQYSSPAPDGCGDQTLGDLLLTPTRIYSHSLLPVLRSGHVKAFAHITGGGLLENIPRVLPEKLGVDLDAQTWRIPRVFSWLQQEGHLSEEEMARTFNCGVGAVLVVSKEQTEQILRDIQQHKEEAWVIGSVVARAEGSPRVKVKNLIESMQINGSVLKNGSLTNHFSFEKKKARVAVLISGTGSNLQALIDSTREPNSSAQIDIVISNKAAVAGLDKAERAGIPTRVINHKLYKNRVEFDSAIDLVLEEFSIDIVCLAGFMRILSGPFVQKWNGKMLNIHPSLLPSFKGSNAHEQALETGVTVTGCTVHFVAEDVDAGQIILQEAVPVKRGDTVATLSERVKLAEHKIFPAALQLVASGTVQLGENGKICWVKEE
From the text: as §1

T2 sequence (P04818 whole entry): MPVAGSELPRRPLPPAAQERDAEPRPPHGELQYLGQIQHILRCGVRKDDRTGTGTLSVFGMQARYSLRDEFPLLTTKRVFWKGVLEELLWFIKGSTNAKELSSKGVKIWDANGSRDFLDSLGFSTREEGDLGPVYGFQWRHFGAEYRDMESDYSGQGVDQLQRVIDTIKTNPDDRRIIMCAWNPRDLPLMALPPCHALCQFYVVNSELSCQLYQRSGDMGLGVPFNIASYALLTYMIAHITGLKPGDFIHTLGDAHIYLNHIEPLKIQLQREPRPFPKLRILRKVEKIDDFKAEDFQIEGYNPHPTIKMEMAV
Chain of AICART (P31939 whole entry): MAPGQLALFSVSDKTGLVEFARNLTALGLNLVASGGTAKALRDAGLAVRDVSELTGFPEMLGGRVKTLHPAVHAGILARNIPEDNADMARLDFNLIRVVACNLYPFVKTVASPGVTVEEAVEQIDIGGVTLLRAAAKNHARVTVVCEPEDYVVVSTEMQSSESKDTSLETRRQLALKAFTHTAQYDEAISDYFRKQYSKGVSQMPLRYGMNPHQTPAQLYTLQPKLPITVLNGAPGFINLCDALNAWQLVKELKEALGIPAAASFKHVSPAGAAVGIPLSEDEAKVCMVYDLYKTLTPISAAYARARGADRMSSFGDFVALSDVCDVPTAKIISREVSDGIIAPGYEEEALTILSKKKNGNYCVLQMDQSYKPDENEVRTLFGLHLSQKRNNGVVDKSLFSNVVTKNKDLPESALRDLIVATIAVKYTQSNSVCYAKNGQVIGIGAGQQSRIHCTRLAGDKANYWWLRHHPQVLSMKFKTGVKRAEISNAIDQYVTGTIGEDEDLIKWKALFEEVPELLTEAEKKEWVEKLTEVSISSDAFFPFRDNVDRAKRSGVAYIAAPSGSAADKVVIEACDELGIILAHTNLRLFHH

IC50 [1] [nM] | IC50 [2] [µM] | IC50 (AICART) [µM] | IC50 (GARFT) [µM] | Compound
1.1 | 8 | – | – | C=C(CC(NC(=O)c1ccc(CCc2ccc3nc(N)nc(N)c3c2)cc1)C(=O)O)C(=O)O (stereo not shown) [Mobiltrex, 2-{4-[2-(2,4-diamino-quinazolin-6-yl)-ethyl] -benzoylamino}-4-methylidene-pentanedioic acid, reference compound]
5.2 | – | – | – | C=C(C[C@H](NC(=O)c1ccc(CCc2c[nH]c3nc(N)nc(N)c23)cc1)C(=O)O)C(=O)O [CHL1007, (S)-N-{4-[2-(2,4-diamino-7H-pyrrolo[2,3-d]pyrimidin-5-yl)ethyl]benzoyl}-4-methylene-L-glutamic acid disodium salt]
12.5 | > 50 | > 50 | > 50 | C=C(CC(NC(=O)c1ccc(CCc2c[nH]c3nc(N)nc(N)c23)cc1)C(=O)O)C(=O)O (racemic) [CHL-003, N-{4-[2-(2,4-diamino-7H-pyrrolo[2,3-d]pyrimidin-5-yl)ethyl]benzoyl}-4-methylene-glutamic acid]

From patent US7951812B2, “Substituted pyrrolo[2,3-d]pyrimidines as antifolates” (Chelsea Therapeutics, Inc., priority 2007, dated 2011)
